Reference: ChEMBL document CHEMBL1201862, “PubChem BioAssay data set” (2004)
Activity calls are given as the source filed them.

What was measured:
[1] = molecular target: T1, Sentrin-specific protease 8 (Homo sapiens, UniProt Q96LD8); type: functional
T1 sequence (Q96LD8 whole entry): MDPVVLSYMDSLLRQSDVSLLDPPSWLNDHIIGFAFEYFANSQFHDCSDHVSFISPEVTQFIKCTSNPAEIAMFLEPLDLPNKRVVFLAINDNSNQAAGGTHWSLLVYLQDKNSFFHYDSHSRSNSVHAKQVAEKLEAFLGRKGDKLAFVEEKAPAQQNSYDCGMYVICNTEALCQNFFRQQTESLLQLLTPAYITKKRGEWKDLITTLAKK

[2] = molecular target: T1, Sentrin-specific protease 8; type: functional; remark: listed apart in the source
[3] = molecular target: T2, Carboxy-terminal domain RNA polymerase II polypeptide A small phosphatase 1 (Homo sapiens, UniProt Q9GZU7); assay: CTDSP1 inhibitors, concentration-response, biochemical, absorbance readout, ultra-high-throughput screen actives (AID 540297); type: functional
T2 sequence (Q9GZU7 whole entry): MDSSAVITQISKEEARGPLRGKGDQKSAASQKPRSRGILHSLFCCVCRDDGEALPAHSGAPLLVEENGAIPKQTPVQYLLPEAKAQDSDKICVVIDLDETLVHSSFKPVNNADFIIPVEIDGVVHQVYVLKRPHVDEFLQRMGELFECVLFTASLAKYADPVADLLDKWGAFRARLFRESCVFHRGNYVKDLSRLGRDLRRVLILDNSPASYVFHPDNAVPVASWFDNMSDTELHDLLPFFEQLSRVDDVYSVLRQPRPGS

[4] = molecular target: T3, Low molecular weight phosphotyrosine protein phosphatase (Homo sapiens, UniProt P24666); type: functional; conditions: read-out: IC50_Mean;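 further: Dose-response confirmation assay measuring inhibition of LMPTP enzyme activity by fluorescence intensity read-out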
T3 sequence (P24666 whole entry): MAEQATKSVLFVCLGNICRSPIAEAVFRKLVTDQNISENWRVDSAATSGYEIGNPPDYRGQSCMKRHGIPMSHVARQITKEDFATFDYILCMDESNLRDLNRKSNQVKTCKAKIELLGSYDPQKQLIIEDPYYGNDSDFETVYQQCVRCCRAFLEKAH

Fatty acid synthase [5] = molecular target: T4, Fatty acid synthase (Homo sapiens, UniProt P49327); assay: inhibition of human FAS-TE enzyme activity – biochemical, kinetic fluorescence intensity, dose response (AID 624326); type: functional;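 further: rate of fluorescence rise from hydrolysis of a fluorogenic O-methyl fluorescein ester substrate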
T4 sequence (P49327 whole entry): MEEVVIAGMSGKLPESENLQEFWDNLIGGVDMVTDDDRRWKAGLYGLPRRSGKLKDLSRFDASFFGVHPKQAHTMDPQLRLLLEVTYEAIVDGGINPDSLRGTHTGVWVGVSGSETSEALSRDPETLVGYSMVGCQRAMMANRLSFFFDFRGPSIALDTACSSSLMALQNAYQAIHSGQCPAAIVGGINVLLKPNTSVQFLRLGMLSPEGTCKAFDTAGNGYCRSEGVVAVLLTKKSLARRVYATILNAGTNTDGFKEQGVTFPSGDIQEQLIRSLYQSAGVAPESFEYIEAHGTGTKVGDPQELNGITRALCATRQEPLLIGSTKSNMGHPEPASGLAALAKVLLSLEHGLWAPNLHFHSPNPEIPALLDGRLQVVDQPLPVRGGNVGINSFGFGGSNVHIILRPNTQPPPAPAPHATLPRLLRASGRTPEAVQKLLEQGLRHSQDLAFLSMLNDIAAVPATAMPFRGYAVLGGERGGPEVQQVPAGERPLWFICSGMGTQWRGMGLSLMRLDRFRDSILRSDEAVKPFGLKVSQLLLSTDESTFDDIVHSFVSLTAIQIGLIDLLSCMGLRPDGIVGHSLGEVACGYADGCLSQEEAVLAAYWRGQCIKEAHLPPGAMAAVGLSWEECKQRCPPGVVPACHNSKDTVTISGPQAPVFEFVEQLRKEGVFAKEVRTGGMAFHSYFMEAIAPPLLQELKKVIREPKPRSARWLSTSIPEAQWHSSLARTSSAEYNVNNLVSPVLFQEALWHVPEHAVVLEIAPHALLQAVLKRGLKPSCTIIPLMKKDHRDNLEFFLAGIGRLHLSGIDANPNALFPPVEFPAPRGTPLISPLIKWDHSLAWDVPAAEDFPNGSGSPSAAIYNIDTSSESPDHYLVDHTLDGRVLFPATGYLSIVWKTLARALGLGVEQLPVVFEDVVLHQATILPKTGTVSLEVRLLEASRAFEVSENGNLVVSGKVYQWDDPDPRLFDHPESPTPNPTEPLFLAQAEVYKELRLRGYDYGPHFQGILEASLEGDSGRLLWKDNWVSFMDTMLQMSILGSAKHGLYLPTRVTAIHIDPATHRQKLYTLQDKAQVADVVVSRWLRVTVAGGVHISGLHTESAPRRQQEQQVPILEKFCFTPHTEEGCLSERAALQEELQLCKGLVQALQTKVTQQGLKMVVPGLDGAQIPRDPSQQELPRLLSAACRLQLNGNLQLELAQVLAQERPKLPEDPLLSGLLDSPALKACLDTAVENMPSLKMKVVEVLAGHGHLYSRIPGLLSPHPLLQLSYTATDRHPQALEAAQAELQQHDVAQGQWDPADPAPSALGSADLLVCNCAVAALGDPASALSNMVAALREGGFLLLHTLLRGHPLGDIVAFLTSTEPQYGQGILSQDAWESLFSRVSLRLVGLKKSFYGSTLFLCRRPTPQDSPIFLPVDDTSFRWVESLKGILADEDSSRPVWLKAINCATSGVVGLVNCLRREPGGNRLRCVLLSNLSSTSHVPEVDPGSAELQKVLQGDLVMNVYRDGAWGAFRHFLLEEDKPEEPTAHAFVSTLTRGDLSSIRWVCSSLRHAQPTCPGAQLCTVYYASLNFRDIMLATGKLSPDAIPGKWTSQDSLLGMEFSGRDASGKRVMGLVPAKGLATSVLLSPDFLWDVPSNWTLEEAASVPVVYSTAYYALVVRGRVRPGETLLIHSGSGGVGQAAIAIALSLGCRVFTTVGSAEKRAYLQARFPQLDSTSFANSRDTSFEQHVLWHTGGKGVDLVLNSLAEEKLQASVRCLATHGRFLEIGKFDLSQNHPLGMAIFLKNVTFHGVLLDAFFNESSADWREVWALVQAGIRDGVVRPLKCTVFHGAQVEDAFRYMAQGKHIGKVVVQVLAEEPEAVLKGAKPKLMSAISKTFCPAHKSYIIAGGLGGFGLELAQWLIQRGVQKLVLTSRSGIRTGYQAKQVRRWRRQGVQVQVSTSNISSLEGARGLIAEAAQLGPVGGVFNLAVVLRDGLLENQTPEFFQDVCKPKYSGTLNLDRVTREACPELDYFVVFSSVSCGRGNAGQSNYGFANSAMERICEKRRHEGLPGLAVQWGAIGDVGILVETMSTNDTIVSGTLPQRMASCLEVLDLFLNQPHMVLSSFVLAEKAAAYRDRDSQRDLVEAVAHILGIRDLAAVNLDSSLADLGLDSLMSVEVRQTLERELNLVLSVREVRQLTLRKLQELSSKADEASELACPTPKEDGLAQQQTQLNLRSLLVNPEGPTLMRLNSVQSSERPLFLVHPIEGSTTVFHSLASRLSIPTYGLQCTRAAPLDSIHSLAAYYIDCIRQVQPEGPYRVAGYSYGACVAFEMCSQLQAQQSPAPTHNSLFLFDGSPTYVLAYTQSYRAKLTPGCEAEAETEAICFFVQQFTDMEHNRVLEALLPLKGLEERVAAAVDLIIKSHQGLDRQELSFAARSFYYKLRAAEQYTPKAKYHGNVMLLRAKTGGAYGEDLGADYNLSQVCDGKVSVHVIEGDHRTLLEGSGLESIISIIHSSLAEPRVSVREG

[6] = molecular target: T5, High affinity choline transporter 1 (Homo sapiens, UniProt Q9GZV3); assay: human choline transporter blockers, potency – cell-based, 5-point CRC, membrane potential dye, dose response (AID 504840); type: functional
T5 sequence (Q9GZV3 whole entry): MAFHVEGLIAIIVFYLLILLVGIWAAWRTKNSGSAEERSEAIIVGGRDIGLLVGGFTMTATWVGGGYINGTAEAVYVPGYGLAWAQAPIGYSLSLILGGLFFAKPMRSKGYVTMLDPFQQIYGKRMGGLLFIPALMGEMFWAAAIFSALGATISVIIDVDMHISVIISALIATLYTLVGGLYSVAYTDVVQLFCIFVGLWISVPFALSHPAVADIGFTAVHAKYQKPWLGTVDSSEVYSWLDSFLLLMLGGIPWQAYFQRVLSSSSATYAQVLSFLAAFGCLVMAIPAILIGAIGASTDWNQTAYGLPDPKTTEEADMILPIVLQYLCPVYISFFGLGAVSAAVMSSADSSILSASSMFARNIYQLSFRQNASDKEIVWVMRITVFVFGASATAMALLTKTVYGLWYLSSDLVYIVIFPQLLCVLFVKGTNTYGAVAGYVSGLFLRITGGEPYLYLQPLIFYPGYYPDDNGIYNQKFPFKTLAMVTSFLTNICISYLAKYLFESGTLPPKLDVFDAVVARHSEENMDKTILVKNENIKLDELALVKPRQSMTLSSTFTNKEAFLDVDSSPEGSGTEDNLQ

Fatty acid synthase [7] = molecular target: T4, Fatty acid synthase; assay: inhibition of human FAS-TE enzyme activity – biochemical, endpoint fluorescence intensity, uHTS hits, dose response (AID 624327); type: functional;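 further: fluorescence from hydrolysis of an O-methyl fluorescein acyl ester substrate by the enzyme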
Streptokinase A = molecular target: T6, Streptokinase A (Streptococcus pyogenes serotype M1, UniProt P10520); assay: viability-normalized secreted streptokinase activity reduction – plasminogen activation absorbance, OD405, dose response (AID 1914); type: functional, Streptococcus pyogenes M1 GAS;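 further: secreted streptokinase activity via plasminogen activation per viability signal from cell pellet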
T6 sequence (P10520 whole entry): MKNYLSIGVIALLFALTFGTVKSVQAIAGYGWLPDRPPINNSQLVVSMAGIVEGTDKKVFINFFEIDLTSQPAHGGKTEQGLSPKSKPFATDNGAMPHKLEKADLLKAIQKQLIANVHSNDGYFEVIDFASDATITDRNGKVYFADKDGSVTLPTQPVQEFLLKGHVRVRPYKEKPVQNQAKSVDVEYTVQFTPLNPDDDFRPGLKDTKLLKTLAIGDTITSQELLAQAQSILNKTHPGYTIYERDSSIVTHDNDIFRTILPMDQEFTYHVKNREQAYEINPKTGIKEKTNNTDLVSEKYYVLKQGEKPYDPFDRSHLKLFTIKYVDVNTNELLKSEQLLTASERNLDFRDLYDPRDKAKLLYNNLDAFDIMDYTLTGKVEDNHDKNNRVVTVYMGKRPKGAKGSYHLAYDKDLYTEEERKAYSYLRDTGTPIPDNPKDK

[8] = molecular target: T7, Heat shock factor protein 1 (Mus musculus, UniProt P38532); assay: enhancement of HSF1-driven luciferase signal – cell-based, NIH3T3, luminescence, dose retest, confirmation (AID 435004); type: functional;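 further: stress induced by proteasome inhibitor MG132 added 30 min after compound; luciferase reporter driven by HSF1 response element in NIH3T3 cells; actives raise luminescence as potentiators of the MG132 stress response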
T7 sequence (P38532 whole entry): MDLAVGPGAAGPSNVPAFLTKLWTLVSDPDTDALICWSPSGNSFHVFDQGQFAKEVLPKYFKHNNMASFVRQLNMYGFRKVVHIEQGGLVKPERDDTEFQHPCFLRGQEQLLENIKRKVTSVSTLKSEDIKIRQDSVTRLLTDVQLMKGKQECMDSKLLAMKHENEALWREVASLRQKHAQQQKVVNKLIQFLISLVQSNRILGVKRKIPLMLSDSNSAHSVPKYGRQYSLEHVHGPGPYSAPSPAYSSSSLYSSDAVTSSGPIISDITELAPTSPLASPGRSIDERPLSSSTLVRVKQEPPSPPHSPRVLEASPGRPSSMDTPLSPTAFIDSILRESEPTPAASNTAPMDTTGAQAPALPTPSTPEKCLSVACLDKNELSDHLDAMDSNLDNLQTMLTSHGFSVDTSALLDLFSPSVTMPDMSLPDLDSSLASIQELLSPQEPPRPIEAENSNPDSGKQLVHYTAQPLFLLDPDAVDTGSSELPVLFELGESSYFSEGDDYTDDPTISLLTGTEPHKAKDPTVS

Prothrombin = Prothrombin (Homo sapiens, UniProt P00734); assay: Thrombin 1536 HTS Dose Response Confirmation. [Related pubchem assays: 1046 (Thrombin 1536 HTS; hits were confirmed in this assay)]; type: functional
[9] = viability of uninfected HEp-2 cells – cell-based, HTS, cytotoxicity control for RSV inhibitor project, dose response (AID 2410); type: functional; conditions: human respiratory syncytial virus
[10] = A Cell Based Secondary Assay To Explore Cytotoxicity of Compounds that Sensitize Mycobacterium Tuberculosis to Beta-Lactam Antibiotics.; type: functional
Streptococcus = assay: GAS UMAA2166 growth inhibition – luminescence, BacTiterGlo, counter-screen for streptokinase expression inhibitor project, dose response (AID 1915); type: functional, organism-based;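 further: potency for reduction of bacterial viability or growth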
[11] = system: Streptococcus sp. 'group A'; assay: Streptococcus pyogenes SK(-)GAS viability under kanamycin – luminescence, BacTiterGlo, confirmation, counter-screen for streptokinase expression inhibitor project, dose response (AID 1900); type: functional, organism-based
Aminopeptidase N = molecular target: T8, Aminopeptidase N (Plasmodium falciparum FcB1/Columbia, UniProt O96935); assay: malaria alanyl aminopeptidase activity blockers – biochemical, fluorogenic H-Leu-NHMec substrate, 1536-well (AID 1445); parameters: species or system Plasmodium falciparum 3D7, 3D7
T8 sequence (O96935 whole entry): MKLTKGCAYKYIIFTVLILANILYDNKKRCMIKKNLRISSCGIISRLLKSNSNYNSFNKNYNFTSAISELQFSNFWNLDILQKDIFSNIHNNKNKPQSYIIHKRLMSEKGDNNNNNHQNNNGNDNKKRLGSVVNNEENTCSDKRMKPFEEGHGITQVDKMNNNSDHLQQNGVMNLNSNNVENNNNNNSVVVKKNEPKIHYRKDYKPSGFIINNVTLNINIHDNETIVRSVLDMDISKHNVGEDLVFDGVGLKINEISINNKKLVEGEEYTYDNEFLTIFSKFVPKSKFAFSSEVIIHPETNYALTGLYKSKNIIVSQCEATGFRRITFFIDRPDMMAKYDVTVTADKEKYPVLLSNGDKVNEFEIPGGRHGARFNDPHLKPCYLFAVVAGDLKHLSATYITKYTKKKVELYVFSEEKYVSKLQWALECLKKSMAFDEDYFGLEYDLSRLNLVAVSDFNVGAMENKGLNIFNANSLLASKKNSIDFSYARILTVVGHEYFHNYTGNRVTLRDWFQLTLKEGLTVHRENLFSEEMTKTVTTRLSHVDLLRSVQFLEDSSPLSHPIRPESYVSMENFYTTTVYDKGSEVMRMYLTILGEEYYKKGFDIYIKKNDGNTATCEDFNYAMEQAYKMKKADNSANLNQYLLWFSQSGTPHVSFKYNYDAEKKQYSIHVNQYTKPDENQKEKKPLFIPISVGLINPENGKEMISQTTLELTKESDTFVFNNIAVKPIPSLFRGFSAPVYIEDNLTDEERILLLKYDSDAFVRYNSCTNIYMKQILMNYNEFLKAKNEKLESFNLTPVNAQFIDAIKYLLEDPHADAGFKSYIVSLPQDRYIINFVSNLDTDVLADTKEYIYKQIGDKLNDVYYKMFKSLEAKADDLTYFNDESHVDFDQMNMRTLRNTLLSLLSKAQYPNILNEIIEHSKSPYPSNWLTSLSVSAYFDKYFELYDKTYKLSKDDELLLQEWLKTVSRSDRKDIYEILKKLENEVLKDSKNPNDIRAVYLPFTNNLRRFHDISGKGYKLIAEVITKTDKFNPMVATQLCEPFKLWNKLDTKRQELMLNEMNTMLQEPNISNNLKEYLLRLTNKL

[12] = Luminescence Cell-Based Dose Retest to Confirm Inhibitors of Cancer Stem Cells. [Related pubchem assays (depositor defined):AID2717, AID2721]; type: functional; conditions: Homo sapiens
[13] = molecular target: T9, Long-chain-fatty-acid--AMP ligase FadD28 (Mycobacterium tuberculosis, UniProt P9WQ59); assay: Fluorescence polarization aasay to screen for inhibitors that compete for the binding of FadD28 to a bisubstrate Measured in Biochemical System Using Plate Reader - 2147-01_Inhibitor_Dose_CherryPick_Activity.; type: functional, Mycobacterium tuberculosis H37Rv
T9 sequence (P9WQ59 whole entry): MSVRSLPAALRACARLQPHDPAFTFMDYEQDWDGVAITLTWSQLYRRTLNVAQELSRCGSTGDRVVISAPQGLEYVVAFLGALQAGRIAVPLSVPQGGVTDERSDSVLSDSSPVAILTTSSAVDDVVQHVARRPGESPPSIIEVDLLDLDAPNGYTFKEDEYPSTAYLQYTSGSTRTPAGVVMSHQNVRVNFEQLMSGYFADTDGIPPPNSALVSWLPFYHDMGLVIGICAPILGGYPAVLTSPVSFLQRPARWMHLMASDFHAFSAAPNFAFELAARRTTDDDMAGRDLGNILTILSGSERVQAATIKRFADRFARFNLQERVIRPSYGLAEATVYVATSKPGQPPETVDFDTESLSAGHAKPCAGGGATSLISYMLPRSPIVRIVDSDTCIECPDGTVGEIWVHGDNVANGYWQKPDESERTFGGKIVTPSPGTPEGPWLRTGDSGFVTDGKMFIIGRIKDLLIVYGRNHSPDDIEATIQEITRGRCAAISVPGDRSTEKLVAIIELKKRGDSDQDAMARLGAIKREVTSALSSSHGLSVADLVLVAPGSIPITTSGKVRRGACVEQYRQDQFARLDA

With Cc1cc(=O)n(-c2ccc3ccccc3n2)[nH]1 the IC50 [1] was 30.4 µM (active) and the IC50 [2] was 24.2 µM (active).
With O=C(O)c1ccc(Nc2nc(-c3ccc([N+](=O)[O-])cc3)nc3ccccc23)cc1 the IC50 [3] was 4.57 µM (active) and the IC50 [4] was 10.9 µM (active).
With C/C(=N\NS(=O)(=O)c1ccc(Cl)c([N+](=O)[O-])c1)c1cc2ccccc2o1 the IC50 (Fatty acid synthase [5]) was 15.6 µM (active), the IC50 [6] was 4.37 µM (active) and the IC50 [4] was 80 µM (inactive). For the same compound, the IC50 (Fatty acid synthase [7]) was 12.3 µM (active).
For Cc1[nH][nH]c(=O)c1C(c1c(C)[nH][nH]c1=O)c1cn(Cc2ccc(Cl)c(Cl)c2)c2ccccc12, the EC50 (Streptokinase A) was 10.1 µM (active), the IC50 [1] was 6.19 µM (active) and the IC50 [2] was 5.81 µM (active). For the same compound, the EC50 [8] was 27 µM (active).
With CC1OC(O[C@H]2CC[C@]3(C)C4C=C[C@]56OC[C@@]7(CC[C@@H](C)[C@H](C)C75)[C@H](O)C[C@@]6(C)[C@]4(C)CC[C@H]3C2(C)C)C(OC2OC(CO)C(O)C(O)C2OC2OCC(O)C(O)C2O)C(O)C1O (stereo partly specified) the IC50 (Prothrombin) was > 50 µM (not active).
With COc1ccccc1-n1c(C)cc(/C=C2/C(=N)N3C(=NC2=O)SN=C3S(C)(=O)=O)c1C the IC50 (cells) was 11.4 µM (active) and the CC50 [9] was 19.8 µM (active).
With O=C(COC(=O)c1cc(Br)ccc1O)Nc1cc(S(=O)(=O)N2CCCC2)ccc1Cl the IC50 (Prothrombin) was 7.17 µM (active).
In the case of Cc1cn([C@@H](CCCCNC(=O)OC(C)(C)C)C(=O)NCCCCCCCCCCC(=O)N2CCN(C(=O)OC(C)(C)C)CC2)nn1, the CC50 [10] was 37.6 µM (active).
With Cc1c(NC(=O)CSc2nnc3c4ccccc4n(CCc4ccccc4)c3n2)c(=O)n(-c2ccccc2)n1C the IC50 (cells) was 3.31 µM (active), the EC50 [8] was 24.1 µM (active) and the CC50 [9] was 4.56 µM (active).
For COC(=O)c1cc(C)nc2c(C)cc3[nH]c4ccccc4c3c12, the CC50 [10] was > 40 µM (active) and the CC50 [9] was 15 µM (active).
In the case of O=C(Nc1ccc(Cl)c(Cl)c1)C1CC(=O)N(c2ccc(Br)cc2)C1 (stereo unspecified), the EC50 (Streptococcus) was 11.9 µM (active), the EC50 (Streptokinase A) was 20.1 µM (active) and the IC50 (Prothrombin) was > 50 µM (not active). The EC50 [11] was 5.25 µM (active).
For C/C(=N\NC(=O)c1cccc(Cl)c1)C1C(=O)c2ccccc2C1=O, the IC50 (Aminopeptidase N) was 40.8 µM (active), the AC50 [12] was 10.7 µM (active) and the AC50 [13] was 68.6 µM (active).
With Cc1ccc(C2CC(=O)NC(SCC(=O)Nc3nccs3)=C2C#N)cc1 (stereo unspecified) the AC50 [13] was 51.5 µM (active).
With Nc1[nH]cnc2nc(SCCN3CCCCC3)nc1-2 the IC50 (Prothrombin) was > 50 µM (not active).
